Results on three compounds are retold here after CN102911068A, “左旋肉碱l-苹果酸盐及其制备方法与用途” (GUANGZHOU AOHAI BIO-TECHNOLOGY CO LTD, priority 2011, dated 2013).

The conditions of series [1]: background art; cited from earlier work.
Series [2] can be described thus: Angle of repose (powder poured through a funnel) / flowability. In kind it is physicochemical.
Series [3] is described as follows: Critical relative humidity (CRH) from moisture absorption equilibrium curve. In kind it is physicochemical.
Series [4] has as its system obese model rats [肥胖模型大鼠]. Briefly: Weight-loss efficacy test in obese model SD rats (diet-induced obesity, with swimming exercise). As to conditions: 30 days; for body fat (testicular and perirenal fat pads) / body weight increase / fat/body ratio: gavage. It is filed as in vivo, rat.
The conditions of series [5]: background art, cited from earlier work.
The mark [6] stands for this setting: high dose + exercise (30x recommended human dose; Ex. 2 at maximum dissolved concentration; Ex. 1/2/3/4: 0.96/0.36/1.02/1.08 g in 2 ml water), * (P<0.05 vs model control): all.
[7] abbreviates: L-carnitine tartrate control + exercise, 0.13 g in 2 ml water, swimming 30 min, 5 times/week, * (P<0.05 vs model control) printed.

One may read the LD50 as the dose expected to kill half of the subjects tested.

`CC(=O)[O-].CC(=O)[O-].[Ca+2]` [醋酸钙]: the LD50 in series [1] was less than 5000 mg/kg.
In series [2] (solid powder flowing from funnel), `C[N+](C)(C)CC(O)CC(=O)O` (centres unmarked) [实施例1药, 左旋肉碱L-苹果酸盐] showed an angle of repose of 30 °. Also, in series [2] (words, judged from angle of repose), the flowability result is on record as “流动性较好”. Besides, the “critical relative humidity CRH” value in series [3] (25 °C, saturated salt solutions in desiccator) was found to be 87%. In addition, the “moisture absorption (hygroscopicity)” value in series [3] (words, judged from CRH at 25 °C) is given as “不易吸潮”. The “body fat (testicular and perirenal fat pads)” value in series [4] (setting [6]) stood at 5.9 ± 4.5 g; in series [4] (low dose + exercise (5x recommended human dose; Ex. 1/2/3/4: 0.16/0.18/0.17/0.18 g in 2 ml water), * (P<0.05 vs model control): Ex. 2, 3, 4), 7.3 ± 4.1 g. The body weight increase in series [4] (setting [6]) is 15.2 ± 7.9 g; in series [4] (low dose + exercise (5x recommended human dose; Ex. 1/2/3/4: 0.16/0.18/0.17/0.18 g in 2 ml water), * (P<0.05 vs model control): Ex. 1, 3, 4), 19.3 ± 10.2 g. Besides, the fat/body ratio in series [4] (setting [6]) was 0.02±0.02; in series [4] (low dose + exercise (5x recommended human dose; Ex. 1/2/3/4: 0.16/0.18/0.17/0.18 g in 2 ml water), no * printed), 0.03±0.01. Also, the “difference between results of Example 1, 2, 3 and 4 drugs” value in series [4] (words, obese rats) was “无明显差异”.
`C[N+](C)(C)CC(O)CC(=O)O` (centres unmarked) [左旋肉碱酒石酸盐, reference compound]: the “body fat (testicular and perirenal fat pads)” value in series [4] (L-carnitine tartrate control + exercise, 0.13 g in 2 ml water, swimming 30 min, 5 times/week) was determined as 8.2 ± 4.3 g. In series [4] (setting [7]), the body weight increase is 21.3 ± 14.2 g and the fat/body ratio was determined as 0.03±0.01. The hygroscopicity entry in series [5] (words) is “仍有较大的吸湿性”. Besides, in series [5], the “relative humidity at which deliquescence occurs” value is given as more than 60%.
